Laboratory results as given in US8952033B2, “4-anilinofuro[2,3-b]quinoline derivatives, their preparation processes, and pharmaceutical compositions comprising the same” (Kaohsiung Medical University, priority 2011, dated 2015).

What was measured:
[1] = system: NCI-H460 (non-small cell lung carcinoma cell); test: MTT antiproliferative assay (cell growth %, GI50), NCI-H460; type: cell-based; conditions: Homo sapiens, NCI-H460, 48 hours, MTT; for activity at 4000 µg/mL: 4 mg/ml; for activity at 20000 µg/mL: 20 mg/ml
Experimental: (§1) Antiproliferative activities of the compounds of this invention were evaluated substantially according to the method as described in Tseng, C. […] The cells were treated with the test compounds, i.e., the compounds of this invention (in dimethylsulfoxide (DMSO)), or DMSO for 48 hours.
(§2) Before and after the treatment with the test compounds or DMSO, 3-(4,5-dimethylthiazol-2-yl)-2,5-diphenyltetrazolium bromide (MTT, 2 mg/mL, 100 μL) was added to each of the cultures, followed by cultivation for 2 hours. The resultant formazan was dissolved by the addition of DMSO. Absorbance at 570 nm (OD570) was measured using a microtiter plate reader (Dynex MRX-II).
(§3) Determination of GI50 was conducted thrice for each test compound. GI50 is expressed as mean±SD.

[2] = system: MCF-7 (breast cancer cell); test: MTT antiproliferative assay (cell growth %, GI50), MCF-7; type: cell-based; conditions: Homo sapiens, MCF7, 48 hours, MTT; for activity at 4000 µg/mL: 4 mg/ml; for activity at 20000 µg/mL: 20 mg/ml
Experimental: as §1, §2, §3

| Compound | activity at 4000 µg/mL [1] [%] | activity at 20000 µg/mL [1] [%] | activity at 4000 µg/mL [2] [%] | activity at 20000 µg/mL [2] [%] |
| --- | --- | --- | --- | --- |
| COc1ccc2c(Nc3ccc(/C(C)=N/OCCN(C)C)cc3)c3ccoc3nc2c1 [Compound 15b, (E)-1-(4-(7-Methoxyfuro[2,3-b]quinolin-4-ylamino)phenyl)ethanone O-2-(dimethylamino)ethyl oxime] | 75 | -1 | 67 | -1 |
| C/C(=N\OCCN1CCOCC1)c1ccc(Nc2c3ccccc3nc3occc23)cc1 [Compound 13g, (E)-1-(4-(Furo[2,3-b]quinolin-4-ylamino)phenyl)ethanone O-2-morpholinoethyl oxime] | 108 | 23 | 120 | 56 |
| COc1ccc2c(Nc3ccc(/C(C)=N/OCCN4CCCCC4)cc3)c3ccoc3nc2c1 [Compound 15f, (E)-1-(4-(7-Methoxyfuro[2,3-b]quinolin-4-ylamino)phenyl)ethanone O-2-(piperidin-1-yl)ethyl oxime] | 84 | 9 | 77 | 2 |
| COc1ccc2c(Nc3ccc(/C(C)=N/OCCN4CCOCC4)cc3)c3c(Cl)coc3nc2c1 [Compound 16g, (E)-1-(4-(3-Chloro-7-methoxyfuro[2,3-b]quinolin-4-ylamino)phenyl)ethanone O-2-morpholinoethyl oxime] | 97 | 68 | 85 | 37 |
| C/C(=N\OCCN(C)C)c1ccc(Nc2c3ccccc3nc3occc23)cc1 [Compound 13b, (E)-1-(4-(Furo[2,3-b]quinolin-4-ylamino)phenyl)ethanone O-2-(dimethylamino)ethyl oxime] | 94 | 0 | 59 | 0 |
| C/C(=N\OCCCN(C)C)c1ccc(Nc2c3ccccc3nc3occc23)cc1 [Compound 13d, (E)-1-(4-(Furo[2,3-b]quinolin-4-ylamino)phenyl)ethanone O-3-(dimethylamino)propyl oxime] | 52 | 7 | 84 | 22 |
| C/C(=N\OCCCCN1CCOCC1)c1ccc(Nc2c3ccccc3nc3occ(Cl)c23)cc1 [Compound 14h, (E)-1-(4-(3-Chlorofuro[2,3-b]quinolin-4-ylamino)phenyl)ethanone O-4-morpholinobutyl oxime] | 91 | 3 | 75 | -3 |
| COc1ccc2c(Nc3ccc(/C(C)=N/OCCN4CCCCC4)cc3)c3c(Cl)coc3nc2c1 [Compound 16f, (E)-1-(4-(3-Chloro-7-methoxyfuro[2,3-b]quinolin-4-ylamino)phenyl)ethanone O-2-(piperidin-1-yl)ethyl oxime] | 67 | 3 | 56 | -1 |
| C/C(=N\OCCN1CCCCC1)c1ccc(Nc2c3ccccc3nc3occc23)cc1 [Compound 13f, (E)-1-(4-(Furo[2,3-b]quinolin-4-ylamino)phenyl)ethanone O-2-(piperidin-1-yl)ethyl oxime] | 99 | -1 | 114 | 3 |
| C/C(=N\OCCN1CCOCC1)c1ccc(Nc2c3ccccc3nc3occ(Cl)c23)cc1 [Compound 14g, (E)-1-(4-(3-Chlorofuro[2,3-b]quinolin-4-ylamino)phenyl)ethanone O-2-morpholinoethyl oxime] | 107 | 16 | 112 | 54 |
| C/C(=N\OCCCCN1CCOCC1)c1ccc(Nc2c3ccccc3nc3occc23)cc1 [Compound 13h, (E)-1-(4-(Furo[2,3-b]quinolin-4-ylamino)phenyl)ethanone O-4-morpholinobutyl oxime] | 118 | -1 | 76 | -2 |
| C/C(=N\OCCCN(C)C)c1ccc(Nc2c3ccccc3nc3occ(Cl)c23)cc1 [Compound 14d, (E)-1-(4-(3-Chlorofuro[2,3-b]quinolin-4-ylamino)phenyl)ethanone O-3-(dimethylamino)propyl oxime] | 52 | 1 | 61 | 1 |
